In patent US20230140430A1, “1H-PYRAZOLO[4,3-d]PYRIMIDINE COMPOUNDS AS TOLL-LIKE RECEPTOR 7 (TLR7) AGONISTS” (BRISTOL-MYERS SQUIBB COMPANY, priority 2020, published 2023):
Read-outs that look alike come from different tables or passages of the source.

Legend:
[1] = target: T1, human TLR7 (Homo sapiens, UniProt Q9NYK1); experiment: Human TLR7 agonist activity assay (HEK-Blue TLR7 SEAP reporter); assay type: cell-based; conditions: HEK-Blue TLR7 cells, 18 h treatment, average where assay was performed multiple times, read-out: hTLR7 Agonism EC50
T1 construct: host or cells: HEK-Blue TLR7 cells (engineered human embryonic kidney cells)
T1 sequence (Q9NYK1 27-1049): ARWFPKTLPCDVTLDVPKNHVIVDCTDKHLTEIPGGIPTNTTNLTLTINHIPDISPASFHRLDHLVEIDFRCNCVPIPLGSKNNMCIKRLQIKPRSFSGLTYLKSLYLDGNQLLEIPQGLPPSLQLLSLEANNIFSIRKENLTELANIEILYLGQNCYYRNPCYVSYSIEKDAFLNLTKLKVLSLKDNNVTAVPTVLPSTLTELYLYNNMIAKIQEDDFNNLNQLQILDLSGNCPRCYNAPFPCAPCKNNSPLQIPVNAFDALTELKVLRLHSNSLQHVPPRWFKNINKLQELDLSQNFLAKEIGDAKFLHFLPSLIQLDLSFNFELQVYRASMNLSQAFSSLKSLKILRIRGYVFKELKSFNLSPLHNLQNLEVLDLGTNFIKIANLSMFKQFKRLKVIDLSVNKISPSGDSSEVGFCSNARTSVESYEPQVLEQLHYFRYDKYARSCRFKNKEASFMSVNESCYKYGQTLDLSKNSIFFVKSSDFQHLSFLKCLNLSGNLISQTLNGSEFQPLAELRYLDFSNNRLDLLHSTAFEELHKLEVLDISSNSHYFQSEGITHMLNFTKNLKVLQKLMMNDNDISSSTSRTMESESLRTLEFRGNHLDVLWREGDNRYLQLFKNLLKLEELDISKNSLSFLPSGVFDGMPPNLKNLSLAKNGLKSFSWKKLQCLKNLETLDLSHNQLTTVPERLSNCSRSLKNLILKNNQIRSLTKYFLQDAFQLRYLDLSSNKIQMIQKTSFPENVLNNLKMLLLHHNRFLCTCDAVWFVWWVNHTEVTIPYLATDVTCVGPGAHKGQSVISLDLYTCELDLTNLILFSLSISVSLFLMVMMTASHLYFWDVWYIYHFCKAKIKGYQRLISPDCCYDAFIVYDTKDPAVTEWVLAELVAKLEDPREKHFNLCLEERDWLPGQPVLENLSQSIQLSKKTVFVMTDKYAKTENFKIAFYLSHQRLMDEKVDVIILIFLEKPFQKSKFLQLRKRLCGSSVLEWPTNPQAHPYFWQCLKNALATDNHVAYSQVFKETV
Description: This procedure describes a method for assaying human TLR7 (hTLR7) agonist activity of the compounds disclosed in this specification.
HEK-Blue™ TLR7 cells were added to each well of a 384-well tissue-culture plate (15,000 cells per well) and incubated 16-18 h at 37° C., 5% CO2. Compounds (100 nl) were dispensed into wells containing the HEK-Blue™ TLR cells and the treated cells were incubated at 37° C., 5% CO2. After 18 h treatment ten microliters of freshly-prepared Quanti-Blue™ reagent (Invivogen) was added to each well, incubated for 30 min (37° C., 5% CO2) and SEAP levels measured using an Envision plate reader (OD=620 nm).

[2] = system: CD69; experiment: Induction of CD69 in human whole blood; assay type: cell-based
Description: The induction of Type I interferon (IFN) MX-1 genes and the B-cell activation marker CD69 are downstream events that occur upon activation of the TLR7 pathway. The following is a human whole blood assay that measures their induction in response to a TLR7 agonist.
Heparinized human whole blood was harvested from human subjects and treated with test TLR7 agonist compounds at 1 mM. The blood was diluted with RPMI 1640 media and Echo was used to predot 10 nL per well giving a final concentration of 1 uM (10 nL in 10 uL of blood). After mixing on a shaker for 30 sec, the plates were covered and placed in a 37° C. chamber for o/n=17 hrs. Fixing/lysis buffer was prepared (5×->1× in H2O, warm at 37° C.; Cat #BD 558049) and kept the perm buffer (on ice) for later use.
For surface markers staining (CD69): prepared surface Abs: 0.045 ul hCD14-FITC (ThermoFisher Cat #MHCD1401)+0.6 ul hCD19-ef450 (ThermoFisher Cat #48-0198-42)+1.5 ul hCD69-PE (cat #BD555531)+0.855 ul FACS buffer. Added 3 ul/well, spin1000 rpm for 1 min and mixed on shaker for 30 sec, put on ice for 30 mins. Stop stimulation after 30 min with 70 uL of prewarmed 1× fix/lysis buffer and use Feliex mate to resuspend (15 times, change tips for each plate) and incubate at 37 C for 10 min.
Centrifuge at 2000 rpm for 5 min aspirate with HCS plate washer, mix on shaker for 30 sec and then wash with 70 uL in dPBS and pelleted 2×s (2000 rpm for 5 min) and 50 ul wash in FACS buffer pelleted 1×s (2000 rpm for 5 min). Mix on shaker for 30 sec. For Intracellular markers staining (MX-1): Add 50 ul of BD Perm buffer III and mix on shaker for 30 sec. Incubate on ice for 30 minutes (in the dark). Wash with 50 uL of FACS buffer 2× (spin @2300 rpm×5 min after perm) followed by mixing on shaker for 30 sec. Resuspended in 20 ul of FACS buffer containing MX1 antibody ( )(4812)-Alexa 647: Novus Biologicals #NBP2-43704AF647) 20 ul FACS bf+0.8 ul hlgG+0.04 ul MX-1. Spin 1000 rpm for 1 min, mix on shaker for 30se and the samples were incubated at RT in the dark for 45 minutes followed by washing 2×FACS buffer (spin @2300 rpm×5 min after perm). Resuspend 20 ul (35 uL total per well) of FACS buffer and cover with foil and place in 4° C. to read the following day. Plates were read on iQuePlus. The results were loaded into toolset and […] curves are generated in curve master. The y-axis 100% is set to 1 uM of resiquimod.

[3] = Homo sapiens, 17 h, read-out: hWB CD69 EC50 (nM)
[4] = human whole blood, 17 hrs, CD69 surface staining, 100% set to 1 uM of resiquimod, average where assay was performed multiple times, read-out: hWB CD69 EC50

| EC50 [1] [nM] | EC50 [2, 4] [nM] | SMILES | EC50 [2, 3] [nM] |
| --- | --- | --- | --- |
| 1190 | 340 | CCCCNc1nc(N)nc2cnn(Cc3ccc(C(=O)N4CCN(CCO)CC4)cc3OC3CC3)c12 [Compound 122, 2-[4-(4-{[5-amino-7-(butylamino)-1H-pyrazolo[4,3-d]pyrimidin-1-yl]methyl}-3-cyclopropoxybenzoyl)piperazin-1-yl]ethan-1-ol] | – |
| 115 | 71.9 | CCC[C@@H](CCO)Nc1nc(N)nc2cnn(Cc3ccc(C(=O)N4CCN(CCO)CC4)cc3OC)c12 [Compound 123, (3S)-3-{[5-amino-1-({4-[4-(2-hydroxyethyl)piperazine-1-carbonyl]-2-methoxyphenyl}methyl)-1H-pyrazolo[4,3-d]pyrimidin-7-yl]amino}hexan-1-ol] | – |
| 505 | 173 | COc1cc(C(=O)N2CCN(CCO)CC2)ccc1Cn1ncc2nc(N)nc(NCc3cc(C)on3)c21 [Compound 127, 2-(4-{4-[(5-amino-7-{[(5-methyl-1,2-oxazo1-3-yl)methyl]amino}-1H-pyrazolo[4,3-d]pyrimidin-1-yl)methyl]-3-methoxybenzoyl}piperazin-1-yl)ethan-1-ol] | – |
| 145 | 15.8 | COc1cc(C(=O)N2CCN(C)CC2)ccc1Cn1ncc2nc(N)nc(NCc3cc(C)on3)c21 [Compound 130, 1-{[2-methoxy-4-(4-methylpiperazine-1-carbonyl)phenyl]methyl}-N7-[(5-methyl-1,2-oxazo1-3-yl)methyl]-1H-pyrazolo[4,3-d]pyrimidine-5,7-diamine] | – |
| 2190 | 363 | COc1cc(C(=O)N2CCNC(=O)C2)ccc1Cn1ncc2nc(N)nc(NCc3cc(C)on3)c21 [Compound 131, 4-{4-[(5-amino-7-{[(5-methyl-1,2-oxazo1-3-yl)methyl]amino}-1H-pyrazolo[4,3-d]pyrimidin-1-yl)methyl]-3-methoxybenzoyl}piperazin-2-one] | – |
| 95.1 | 10.9 | COc1cc(C(=O)N2CCN(C)CC2)ccc1Cn1ncc2nc(N)nc(NCc3noc(C)n3)c21 [Compound 132, 1-{[2-methoxy-4-(4-methylpiperazine-1-carbonyl)phenyl]methyl}-N7-[(5-methyl-1,2,4-oxadiazo1-3-yl)methyl]-1H-pyrazolo[4,3-d]pyrimidine-5,7-diamine] | – |
| 1870 | 552 | COc1cc(C(=O)N2CCN(CCO)CC2)ccc1Cn1ncc2nc(N)nc(NCc3noc(C)n3)c21 [Compound 133, 2-(4-{4-[(5-amino-7-{[(5-methyl-1,2,4-oxadiazo1-3-yl)methyl]amino}-1H-pyrazolo[4,3-d]pyrimidin-1-yl)methyl]-3-methoxybenzoyl}piperazin-1-yl)ethan-1-ol] | – |

| SMILES | EC50 [1] [nM] | EC50 [2, 4] [nM] | EC50 [2, 3] [nM] |
| --- | --- | --- | --- |
| CCCCNc1nc(N)nc2cnn(Cc3ccc(C(=O)NC4CCN(C)CC4)cc3OC3CC3)c12 [Compound 121, 4-{[5-amino-7-(butylamino)-1H-pyrazolo[4,3-d]pyrimidin-1-yl]methyl}-3-cyclopropoxy-N-(1-methylpiperidin-4-yl)benzamide] | 502 | – | 99.1 |
| CCC1CC(CNc2nc(N)nc3cnn(Cc4ccc(C(=O)NC5CCN(C)CC5)cc4OC)c23)C1 (centres unmarked) [Compound 124, 4-[(5-amino-7-{[(3-ethylcyclobutyl)methyl]amino}-1H-pyrazolo[4,3-d]pyrimidin-1-yl)methyl]-3-methoxy-N-(1-methylpiperidin-4-yl)benzamide] | 508 | – | 95.4 |
| CCC[C@@H](CCO)Nc1nc(N)nc2cnn(Cc3ccc(C(=O)NC4CCN(C)CC4)cc3OC)c12 [Compound 125, 4-[(5-amino-7-{[(3S)-1-hydroxyhexan-3-yl]amino}-1H-pyrazolo[4,3-d]pyrimidin-1-yl)methyl]-3-methoxy-N-(1-methylpiperidin-4-yl)benzamide] | 747 | – | 332 |
| CCC[C@@H](CO)Nc1nc(N)nc2cnn(Cc3ccc(C(=O)NC4CCN(C)CC4)cc3OC)c12 [Compound 126, 4-[(5-amino-7-{[(2S)-1-hydroxypentan-2-yl]amino}-1H-pyrazolo[4,3-d]pyrimidin-1-yl)methyl]-3-methoxy-N-(1-methylpiperidin-4-yl)benzamide] | 5000 | – | 326 |
| CCC[C@@H](CCO)Nc1nc(N)nc2c(F)nn(Cc3ccc(C(=O)NC4CCN(C)CC4)cc3OC)c12 [Compound 128, 4-[(5-amino-3-fluoro-7-{[(3S)-1-hydroxyhexan-3-yl]amino}-1H-pyrazolo[4,3-d]pyrimidin-1-yl)methyl]-3-methoxy-N-(1-methylpiperidin-4-yl)benzamide] | 179 | – | 772 |
| COc1cc(C(=O)NC2CCN(C)CC2)ccc1Cn1ncc2nc(N)nc(NCc3cc(C)on3)c21 [Compound 129, 4-[(5-amino-7-{[(5-methyl-1,2-oxazo1-3-yl)methyl]amino}-1H-pyrazolo[4,3-d]pyrimidin-1-yl)methyl]-3-methoxy-N-(1-methylpiperidin-4-yl)benzamide] | 1240 | – | 67.7 |
